We go through three compounds from patent US11077116B2, “Isoxazole derivatives as inducers of fetal hemoglobin in erythroid precursor cells from beta-thalassemic patients” (RARE PARTNERS SRL, priority 2017, dated 2021).

For the assay, the system named is ErPCs (erythroid precursor cells) of β-thalassemic patients. Briefly: HPLC analysis of hemoglobins in cell lysates of treated ErPCs (two-phase liquid culture). In kind it is cell-based, human. The note with it: for HbF induction: patient Th1 ErPCs (Table II); for HbF induction compared with HU: patient Th10 ErPCs (Table III); for HbF level in treated cells (table title): 100 nM as printed in title. The method, then: Patients were recruited following all the ethical requirements and the approval of the Ethical Committees of Ferrara Hospital. Blood samples were collected from 23 β-thalassemia patients after signature of the informed consent form.
The effects of isoxazole derivatives on cell growth and differentiation of erythroid precursors cells were determined by employing the two-phase liquid culture system and treated for five days with different concentration of the selected compound.
HPLC analyses were done on cell lysates derived from ErPCs of 23 patients and, through careful comparative analyses, we have monitored and quantified HbF, adult hemoglobins (HbA0 and HbA2) and the presence of α-aggregates. Generally, excess of α-globin chains is present in thalassemic patients that are deficient in β-globins, causing α-aggregates formation and precipitation. The α-aggregates reduction represents an important clinical result usually detectable in the presence of efficient HbF inducers.

Regarding `CCNC(=O)c1noc(-c2cc(C(C)C)c(O)cc2O)c1NC(=O)c1ccc(OC)cc1` [Compound 1], the “HbF induction” value was “active in inducing HbF” and the “HbF induction compared with HU” value is listed as “more active than HU in inducing HbF”. The “aggregates α %” value (patient Th1 ErPCs, 85 nM, untreated C− 6.70) was determined as 5.90%. This compound came in with a HbF % (patient Th1 ErPCs, 85 nM, untreated C− 15.47) of 30.30%. Moreover, the HbA2 % (patient Th1 ErPCs, 85 nM, untreated C− 31.29) is 21.39%. The same compound gave a HbA0 % (patient Th1 ErPCs, 85 nM, untreated C− 46.54) of 42.41%. The “aggregates α %” value (patient Th10 ErPCs, 85 nM, untreated C− 11.15) stood at 2.26%. The HbF % (patient Th10 ErPCs, 85 nM, untreated C− 17.57) is listed as 35.54%. In addition, where the note is “patient Th10 ErPCs, 85 nM, untreated C− 32.02”, the HbA2 % is listed as 25.81%. Under “patient Th10 ErPCs, 85 nM, untreated C− 39.26”, the HbA0 % amounted to 36.39%.
As to `CCNC(=O)c1noc(-c2cc(C(C)C)c(O)cc2O)c1NC(=O)CCN1CCOCC1` [Compound 2], the “HbF induction” value is on record as “active in inducing HbF” and the “HbF induction compared with HU” value is “more active than HU in inducing HbF”. Also, the “aggregates α %” value (patient Th1 ErPCs, 50 nM, untreated C− 6.70) came out at 2.81%. This compound also displayed a HbF % (patient Th1 ErPCs, 50 nM, untreated C− 15.47) of 21.67%. In addition, the HbA2 % (patient Th1 ErPCs, 50 nM, untreated C− 31.29) was found to be 24.82%. The compound further yielded a HbA0 % (patient Th1 ErPCs, 50 nM, untreated C− 46.54) of 50.70%. Moreover, the “aggregates α %” value (patient Th10 ErPCs, 50 nM, untreated C− 11.15) is recorded as 2.02%. For the setting “patient Th10 ErPCs, 50 nM, untreated C− 17.57”, this compound displayed a HbF % of 36.36%. Also, the HbA2 % (patient Th10 ErPCs, 50 nM, untreated C− 32.02) turned out to be 25.29%. Moreover, the HbA0 % (patient Th10 ErPCs, 50 nM, untreated C− 39.26) is listed as 36.34%.
`NC(=O)NO` [HU, hydroxyurea, reference compound]: the “HbF induction” value is “active in inducing HbF”. Besides, the “HbF level in treated cells (table title)” value (patient Th1 ErPCs, untreated 15.47%) was found to be 24.51%. Under “patient Th1 ErPCs, 100 μM, untreated C− 6.70”, the “aggregates α %” value is reported as 2.80%. This compound returned a HbF % (patient Th1 ErPCs, 100 μM, untreated C− 15.47) of 24.51%. Moreover, where the note is “patient Th1 ErPCs, 100 μM, untreated C− 31.29”, the HbA2 % was 33.19%. Also, under “patient Th1 ErPCs, 100 μM, untreated C− 46.54”, the HbA0 % was 37.61%. Moreover, where the note is “patient Th10 ErPCs, untreated 17.57%”, the “HbF level in treated cells (table title)” value is on record as 19.42%. Moreover, the “aggregates α %” value (patient Th10 ErPCs, 100 μm, untreated C− 11.15) worked out at 11.55%. Moreover, for the setting “patient Th10 ErPCs, 100 μm, untreated C− 17.57”, the HbF % is recorded as 19.42%. Also, the HbA2 % (patient Th10 ErPCs, 100 μm, untreated C− 32.02) is listed as 34.82%. Besides, the HbA0 % (patient Th10 ErPCs, 100 μm, untreated C− 39.26) turned out to be 34.22%.
